Experimental data from the supplement of paper PMC10307832.

How the values were obtained:
Assay in all cases: relative viability (nuclei count vs DMSO), 5 days (fraction); higher = more cells survive
[1] = compound: O=C(c1cc(Cc2n[nH]c(=O)c3ccccc23)ccc1F)N1CCN(C(=O)C2CC2)CC1 [Olaparib] + CC1(C)CCC(c2ccc(Cl)cc2)=C(CN2CCN(c3ccc(C(=O)NS(=O)(=O)c4ccc(N[C@H](CCN5CCOCC5)CSc5ccccc5)c(S(=O)(=O)C(F)(F)F)c4)cc3)CC2)C1 [Navitoclax] (partner 0.5 µM)
Procedure, shortened: (§1)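 Cells from lung cancer lines were seeded into 1536-well plates and, one day later, dosed by pin tool. Treatments were either a single drug or a fixed dose of an anchor drug with five library-drug doses (not always all listed) in √10 steps. After 5 days, nuclei were stained in a one-step fixation (final 0.05% Triton X-100, 1% formaldehyde, 1 ug/ml Hoechst) and counted on 4× images, and relative viability is the treated-to-vehicle nuclei ratio, as the median of duplicate plates.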

[2] = compound: C[C@@H](Oc1cc(-c2cnn(C3CCNCC3)c2)cnc1N)c1c(Cl)ccc(F)c1Cl [Crizotinib] + O=C(CCCCCCC(=O)Nc1ccccc1)NO [Vorinostat] (partner 1 µM)
Procedure, shortened: as §1

[3] = compound: O=C(c1cc(Cc2n[nH]c(=O)c3ccccc23)ccc1F)N1CCN(C(=O)C2CC2)CC1 [Olaparib] + Cc1nc(NC(=O)N2CCC[C@H]2C(N)=O)sc1-c1ccnc(C(C)(C)C(F)(F)F)c1 [Alpelisib] (partner 2 µM)
Procedure, shortened: as §1

[4] = compound: CC(C)C[C@H](NC(=O)[C@H](CCc1ccccc1)NC(=O)CN1CCOCC1)C(=O)N[C@@H](Cc1ccccc1)C(=O)N[C@@H](CC(C)C)C(=O)[C@@]1(C)CO1 [Carfilzomib] + C[C@@H](Oc1cc(-c2cnn(C3CCNCC3)c2)cnc1N)c1c(Cl)ccc(F)c1Cl [Crizotinib] (partner 1 µM)
Procedure, shortened: as §1

Row | Cell Line | relative viability ([1]; first compound 0.08 µM) | relative viability ([1]; first compound 0.253 µM) | relative viability ([1]; first compound 2.53 µM) | relative viability ([1]; first compound 8 µM) | relative viability ([2]; first compound 0.01 µM) | relative viability ([2]; first compound 0.03162 µM) | relative viability ([2]; first compound 0.1 µM) | relative viability ([2]; first compound 0.3162 µM) | relative viability ([2]; first compound 1 µM) | relative viability ([3]; first compound 0.08 µM) | relative viability ([3]; first compound 0.253 µM) | relative viability ([3]; first compound 2.53 µM) | relative viability ([3]; first compound 8 µM) | relative viability ([4]; first compound 0.001 µM) | relative viability ([4]; first compound 0.003162 µM) | relative viability ([4]; first compound 0.01 µM) | relative viability ([4]; first compound 0.03162 µM) | relative viability ([4]; first compound 0.1 µM)
1 | NCI-H2347 | 0.9 | 0.779 | 0.692 | 0.562 | 0.551 | 0.606 | 0.671 | 0.534 | 0.536 | 1.11 | 0.978 | 0.932 | 0.783 | 0.798 | 0.756 | 0.596 | 0.449 | 0.35
2 | NCI-H2405 | 1.21 | 0.878 | 0.869 | 0.677 | 0.955 | 1.01 | 1.08 | 0.535 | 0.959 | 1.01 | 0.816 | 0.728 | 0.73 | 0.807 | 0.916 | 0.866 | 0.785 | 0.175
3 | NCI-H3122 | 0.948 | 0.976 | 0.964 | 0.86 | 0.929 | 0.753 | 0.932 | 0.941 | 0.961 | 0.7 | 0.638 | 0.867 | 0.668 | 0.3 | 0.286 | 0.259 | 0.303 | 0.274
4 | PC-3 [JPC-3] | 0.784 | 0.729 | 0.743 | 0.76 | 0.687 | 0.903 | 1.16 | – | 0.71 | 1.01 | 1.01 | 1.01 | 0.989 | 1.01 | 0.99 | 0.985 | 0.828 | 0.376
5 | PC-14 | 1.04 | 0.934 | 0.867 | 0.722 | 0.632 | 0.792 | 0.693 | 0.608 | 0.784 | 0.988 | 0.859 | 0.931 | 0.792 | 0.939 | 0.934 | 0.9 | 0.326 | 0.0895
6 | RERF-LC-KJ | 1.04 | 0.862 | 0.998 | 1.09 | 0.695 | 0.708 | 0.709 | 0.566 | 0.773 | 0.826 | 0.806 | 0.845 | 0.883 | 0.899 | 0.801 | 0.86 | 0.78 | 0.359
7 | SK-LU-1 | 0.941 | 0.785 | 0.749 | 0.409 | 0.73 | 0.727 | 0.71 | 0.801 | 0.761 | 1.14 | 0.859 | 0.837 | 0.554 | 0.885 | 1.02 | 0.807 | 0.575 | 0.152
8 | SK-MES-1 | 1.15 | 1.07 | 1.13 | 0.825 | 0.993 | 1.11 | 1.09 | 0.981 | 1.07 | 0.925 | 0.764 | 1.02 | 0.697 | 1.04 | 1.05 | 1.09 | 0.752 | 0.169
9 | SW 1573 | 0.958 | 0.795 | 0.858 | 0.671 | 0.824 | 0.947 | 0.729 | 0.55 | 0.671 | 0.715 | 0.667 | 0.627 | 0.471 | 0.887 | 0.864 | 0.793 | 0.261 | 0.0628
10 | UMC-11 | 0.398 | 0.321 | 0.259 | 0.207 | 0.271 | 0.424 | 0.407 | 0.356 | 0.427 | 1.08 | 0.877 | 0.825 | 0.409 | 0.613 | 0.627 | 0.627 | 0.554 | 0.1
